In PMC6207662, “Postprandial glycaemia-lowering effect of a green tea cultivar Sunrouge and cultivar-specific metabolic profiling for determining bioactivity-related ingredients” (Scientific Reports, 2018):

Tests used:
[1] = biological target: T1, α-Glucosidase from Saccharomyces cerevisiae (Saccharomyces cerevisiae, UniProt P53341); test: Assay of α-glucosidase activity (cell-free, QuantiChrom kit); type: biochemical; conditions: for IC50: cell-free system; for order of α-glucosidase inhibitory rate: 10 μM, n=3, Supplementary Fig. S4; for enhancement of α-glucosidase inhibitory ability by O-methylation (IC50 ratio non-methylated/methylated): IC50 of parent catechin / IC50 of its 3”-O-methylated form
T1 construct: purchased Sigma-Aldrich
T1 sequence (P53341 whole entry): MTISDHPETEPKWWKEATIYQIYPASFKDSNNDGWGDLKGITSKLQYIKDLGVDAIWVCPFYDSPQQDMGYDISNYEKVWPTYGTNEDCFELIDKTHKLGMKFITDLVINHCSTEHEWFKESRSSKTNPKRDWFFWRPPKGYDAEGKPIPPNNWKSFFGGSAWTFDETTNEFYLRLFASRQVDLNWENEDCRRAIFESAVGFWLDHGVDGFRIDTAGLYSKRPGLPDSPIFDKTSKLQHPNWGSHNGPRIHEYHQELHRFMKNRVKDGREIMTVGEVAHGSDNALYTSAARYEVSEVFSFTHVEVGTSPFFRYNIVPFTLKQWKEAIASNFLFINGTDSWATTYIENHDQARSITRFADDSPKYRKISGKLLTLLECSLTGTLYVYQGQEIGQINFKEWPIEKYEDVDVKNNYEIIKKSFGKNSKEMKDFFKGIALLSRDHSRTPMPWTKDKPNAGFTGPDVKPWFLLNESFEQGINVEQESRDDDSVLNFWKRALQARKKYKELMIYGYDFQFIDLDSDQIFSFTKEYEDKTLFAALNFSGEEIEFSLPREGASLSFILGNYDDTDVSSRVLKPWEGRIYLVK
Experimental: α-Glucosidase from Saccharomyces cerevisiae (Sigma-Aldrich) was dissolved in phosphate buffered saline (PBS) at a concentration of 0.01 mg/mL. Tea extracts were diluted 1:10 with distilled water. Tea extracts or various concentrations of flavonoids in DMSO were mixed 1:1 with the α-glucosidase solution. The α-glucosidase activity of the mixture was measured by the QuantiChrom™ α-Glucosidase Assay Kit (Bio Assay Systems, Hayward, CA, USA) according to the manufacturer’s instructions.

[2] = system: postprandial blood glucose level; test: Starch tolerance test in mice (postprandial blood glucose); type: in vivo, mice (male ICR); conditions: compound 500 mg/kg b.w. with soluble starch 2,000 mg/kg b.w., Supplementary Fig. S5
Experimental: Nine-week-old male ICR mice were purchased from Kyudo Company (Saga, Japan). All mice were housed and maintained in a temperature and humidity controlled room with a 12-h light-dark cycle (light from 8 am to 8 pm). All animal studies were performed in accordance with the law (protocol no. 105) and notification (protocol no. 6) of the Japanese government for the welfare of experimental animals. The study protocol was approved by the Animal Care and Use Committee, Kyushu University (Kyushu University, Scientific Research Promotion Division). Mice were randomly divided into 3 groups (n = 8) with equivalent mean body weight and starved overnight. Mice were orally administered with soluble starch (2,000 mg/kg b.w.) (Wako, Osaka, Japan) alone, or in combination with a test sample. All solutions were made in distilled water. Blood was sampled from the tail vein at before (t = 0), 30, 60, 90, 120 and 150 min after administration. The blood glucose level was measured with the Medisafe Mini GR-102 (Terumo Co., Tokyo, Japan) and the areas under the curves (AUC) were calculated.

Row | Compound | IC50 [1] [µM] | order of α-glucosidase inhibitory rate [1] | elevation of postprandial blood glucose level in oral starch tolerance test [2] | effect on the activity of α-glucosidase ([1]; Supplementary Fig. S2) | enhancement of α-glucosidase inhibitory ability by O-methylation (IC50 ratio non-methylated/methylated) [1] [fold]
1 | Oc1cc(O)c2cc(O)c(-c3cc(O)c(O)c(O)c3)[o+]c2c1 [Del, delphinidin] | 31.6 |  |  |  | 
2 | OC[C@H]1O[C@@H](Oc2cc3c(O)cc(O)cc3[o+]c2-c2cc(O)c(O)c(O)c2)[C@H](O)[C@@H](O)[C@@H]1O [Del-glu, delphinidin-3-O-glucoside] | > 100 |  |  |  | 
3 | COc1cc(C(=O)O[C@@H]2Cc3c(O)cc(O)cc3O[C@@H]2c2ccc(O)c(O)c2)cc(O)c1O [ECG3”Me, epicatechin-3-O-(3-O-methyl) gallate] | 14.7 | EGCG3”Me > EGCG > ECG3”Me > ECG |  |  | 
4 | O=c1c(O)c(-c2cc(O)c(O)c(O)c2)oc2cc(O)cc(O)c12 [Myr, myricetin] | 4.4 |  | suppressed the elevation of postprandial blood glucose level |  | 
5 | O=c1c(OC2O[C@H](CO)[C@@H](O)[C@H](O)[C@H]2O)c(-c2cc(O)c(O)c(O)c2)oc2cc(O)cc(O)c12 (some centres unmarked) [Myr-glu, myricetin-3-O-glucoside] | > 100 |  |  |  | 
6 | CCNC(=O)CC[C@H](N)C(=O)O [theanine, L-theanine] |  |  |  | elevated the activity of α-glucosidase | 
7 | epicatechin-3-O-gallate [ECG] | 61.1 | EGCG3”Me > EGCG > ECG3”Me > ECG |  |  | 4.2
8 | epigallocatechin-3-O-(3-O-methyl) gallate [EGCG3”Me] | 8.1 | EGCG3”Me > EGCG > ECG3”Me > ECG |  |  | 
9 | epigallocatechin-3-O-gallate [EGCG] | 13.3 | EGCG3”Me > EGCG > ECG3”Me > ECG | suppressed the elevation of postprandial blood glucose level |  | 1.6
